Source: publication PMC9905339 (Biochemistry, 2023)

Legend:
[1] = molecular target: Rv0099 (Mycobacterium tuberculosis, UniProt P9WQ55)
[2] = molecular target: MmaE (Mycobacterium marinum, UniProt B2HKM3); test: LC-HRMS of Py-AP after tetrazine click; format: biochemical; settings: α-KG, Fe(II), 50 mM HEPES pH 8.0, room temperature
[3] = molecular target: MmaA (Mycobacterium marinum, UniProt B2HKL9)
MmaA, sequence (B2HKL9 whole entry): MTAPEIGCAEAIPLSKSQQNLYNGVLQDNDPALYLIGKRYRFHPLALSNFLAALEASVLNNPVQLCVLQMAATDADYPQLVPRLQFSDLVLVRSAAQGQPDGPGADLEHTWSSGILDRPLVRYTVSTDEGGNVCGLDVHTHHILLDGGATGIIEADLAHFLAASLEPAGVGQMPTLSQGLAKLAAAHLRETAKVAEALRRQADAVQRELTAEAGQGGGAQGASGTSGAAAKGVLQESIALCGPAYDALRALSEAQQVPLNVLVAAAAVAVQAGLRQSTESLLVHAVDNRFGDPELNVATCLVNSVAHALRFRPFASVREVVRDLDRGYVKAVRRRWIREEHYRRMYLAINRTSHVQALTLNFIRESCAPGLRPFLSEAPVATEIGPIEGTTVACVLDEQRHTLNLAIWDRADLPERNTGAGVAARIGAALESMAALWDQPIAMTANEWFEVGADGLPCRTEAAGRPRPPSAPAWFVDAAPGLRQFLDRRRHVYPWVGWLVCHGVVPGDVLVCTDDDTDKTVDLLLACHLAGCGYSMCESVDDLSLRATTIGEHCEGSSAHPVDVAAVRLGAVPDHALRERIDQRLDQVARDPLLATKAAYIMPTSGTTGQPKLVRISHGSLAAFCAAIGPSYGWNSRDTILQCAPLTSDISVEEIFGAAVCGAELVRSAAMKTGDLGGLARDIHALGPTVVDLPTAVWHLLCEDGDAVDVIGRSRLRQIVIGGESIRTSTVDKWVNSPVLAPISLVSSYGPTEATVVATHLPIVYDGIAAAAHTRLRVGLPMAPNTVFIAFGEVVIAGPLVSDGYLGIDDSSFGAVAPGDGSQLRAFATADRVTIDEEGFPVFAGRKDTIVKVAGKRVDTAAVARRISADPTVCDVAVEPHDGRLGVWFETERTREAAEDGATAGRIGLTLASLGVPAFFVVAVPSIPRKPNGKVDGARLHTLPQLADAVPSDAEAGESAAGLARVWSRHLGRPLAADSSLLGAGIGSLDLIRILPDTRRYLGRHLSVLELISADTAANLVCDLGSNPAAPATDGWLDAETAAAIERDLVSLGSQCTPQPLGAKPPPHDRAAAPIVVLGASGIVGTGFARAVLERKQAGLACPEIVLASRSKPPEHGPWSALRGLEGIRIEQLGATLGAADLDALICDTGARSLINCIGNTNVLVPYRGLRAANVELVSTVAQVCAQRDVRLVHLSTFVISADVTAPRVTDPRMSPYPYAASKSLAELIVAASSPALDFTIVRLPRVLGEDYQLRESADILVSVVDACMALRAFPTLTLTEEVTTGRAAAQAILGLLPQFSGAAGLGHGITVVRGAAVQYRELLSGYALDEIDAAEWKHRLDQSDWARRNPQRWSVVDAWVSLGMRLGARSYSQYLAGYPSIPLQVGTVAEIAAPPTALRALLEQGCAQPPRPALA

Rv0099, sequence (P9WQ55 whole entry): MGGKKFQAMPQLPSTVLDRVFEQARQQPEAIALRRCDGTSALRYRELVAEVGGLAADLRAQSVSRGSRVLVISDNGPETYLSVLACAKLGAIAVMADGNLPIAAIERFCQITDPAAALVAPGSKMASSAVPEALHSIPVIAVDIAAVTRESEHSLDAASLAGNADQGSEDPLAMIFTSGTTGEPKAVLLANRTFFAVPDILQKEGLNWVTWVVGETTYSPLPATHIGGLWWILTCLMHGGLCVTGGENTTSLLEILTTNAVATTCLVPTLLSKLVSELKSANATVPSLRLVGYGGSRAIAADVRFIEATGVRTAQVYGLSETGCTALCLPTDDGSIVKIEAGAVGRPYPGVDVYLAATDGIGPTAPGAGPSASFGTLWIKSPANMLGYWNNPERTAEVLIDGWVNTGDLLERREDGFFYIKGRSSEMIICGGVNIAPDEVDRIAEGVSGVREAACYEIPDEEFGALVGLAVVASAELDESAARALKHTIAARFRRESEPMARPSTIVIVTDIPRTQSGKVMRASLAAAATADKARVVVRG
MmaE, sequence (B2HKM3 whole entry): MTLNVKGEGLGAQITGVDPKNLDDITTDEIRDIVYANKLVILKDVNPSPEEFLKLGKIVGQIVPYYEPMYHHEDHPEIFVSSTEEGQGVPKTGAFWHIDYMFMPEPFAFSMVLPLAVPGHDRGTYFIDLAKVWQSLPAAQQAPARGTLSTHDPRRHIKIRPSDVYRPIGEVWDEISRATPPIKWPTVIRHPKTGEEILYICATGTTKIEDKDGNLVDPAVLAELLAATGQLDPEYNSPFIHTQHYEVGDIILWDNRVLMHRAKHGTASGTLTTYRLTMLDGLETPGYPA

Structure (SMILES) | LC-HRMS intact protein and Ppant ejection; loading onto holo-Rv0100 [1] | other results
CCCCCCCC=CC(=O)O [2-decenoic acid] | Rv0099-catalyzed reaction containing holo-Rv0100, 2-decenoic acid, and ATP | 
CCCCCCCC(CC(=O)O)NCC(=O)O (stereo not shown) [CADA, 3-[(carboxymethyl)amino]decanoic acid] |  | LC-HRMS of Py-AP after tetrazine click; turnover [2]: INDA was only detected from the assay with MmaE
[C-]#[N+]C(CCCCCCC)CC(=O)O (stereo not shown) [INDA, 3-isocyanodecanoic acid] | INDA, ATP, Rv0099, and Rv0100 yielded the expected product, INDA-S-Rv0100 | 
NCCCC[C@H](N)C(=O)O [lysine] |  | LC-HRMS of INLP6; coupled assay with Rv0097/MmaE and Rv0098-0100 [3]: together with 2-decenoic acid, ATP, Gly, α-KG, Lys, and NADPH, generated INLP6
